Measurements reported in ChEMBL document CHEMBL5236544, “Furazans in Medicinal Chemistry” (J Med Chem, 2021).
Values belong to the compound of their own block, whether it stands above or below them.

Key:
HCT-116 [1] = experiment: Antiproliferative activity against human HCT-116 cells assessed as reduction in cell viability by MTT assay; format: functional, cell-based
[2] = Inhibition of recombinant MAPK p38 (unknown origin) assessed as inhibition of MEF2A phosphorylation incubated for 5 mins by SDS-PAGE method; set-up: species or system Homo sapiens
HL-60 = experiment: Antiproliferative activity against (unknown origin) HL-60 assessed as inhibition of cell proliferation by MTT assay; format: functional, cell-based; conditions: Homo sapiens
c-Myc/c-Max = c-Myc/c-Max (Homo sapiens, UniProt P01106+P61244); experiment: Inhibition of Myc/Max (unknown origin); format: protein assay
Sequence of c-Myc/c-Max (P01106 whole entry): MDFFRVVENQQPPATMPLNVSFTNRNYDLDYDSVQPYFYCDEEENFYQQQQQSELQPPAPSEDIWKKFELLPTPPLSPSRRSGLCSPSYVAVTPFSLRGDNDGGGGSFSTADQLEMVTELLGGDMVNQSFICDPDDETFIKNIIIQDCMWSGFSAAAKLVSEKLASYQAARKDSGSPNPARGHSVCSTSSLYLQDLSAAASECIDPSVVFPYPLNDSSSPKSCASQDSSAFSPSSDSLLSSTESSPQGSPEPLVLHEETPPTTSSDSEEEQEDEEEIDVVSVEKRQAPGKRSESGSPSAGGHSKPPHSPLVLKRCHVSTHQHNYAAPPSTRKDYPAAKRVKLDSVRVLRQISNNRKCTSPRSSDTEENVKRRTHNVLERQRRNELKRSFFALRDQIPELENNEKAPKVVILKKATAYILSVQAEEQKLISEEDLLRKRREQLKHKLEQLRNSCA
Sequence of c-Myc/c-Max (P61244 whole entry): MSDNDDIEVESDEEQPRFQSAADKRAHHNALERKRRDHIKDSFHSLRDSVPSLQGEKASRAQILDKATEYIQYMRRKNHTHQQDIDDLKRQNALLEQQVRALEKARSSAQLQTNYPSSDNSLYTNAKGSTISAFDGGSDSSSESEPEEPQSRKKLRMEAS

Daudi = experiment: Antiproliferative activity against human Daudi assessed as inhibition of cell proliferation by MTT assay; format: functional, cell-based
Canis familiaris [3] = experiment: Cardioprotective activity in dogs assessed as reduction in aortic pressure at 5.0 ug/kg, iv relative to control; format: functional, Canis lupus familiaris; set-up: scale not given: the % may be the effect or the level left
[4] = Cmax in mouse at 100 mg/kg, po; format: ADME, organism-based; set-up: dose 100 mg/kg, route po; conditions: in vivo
Plasmodium falciparum [5] = experiment: Antimalarial activity against Plasmodium falciparum assessed as parasitic reduction at 10 mg/kg of chloroquine relative to control; format: functional; set-up: scale not given: the % may be the effect or the level left
[6] = Cmax in mouse at 100 mg/kg, ip; format: ADME, organism-based; set-up: dose 100 mg/kg, route ip; conditions: in vivo
[7] = Half life in mouse at 10 mg/kg, ip; format: ADME, organism-based; conditions: in vivo
[8] = Binding affinity to Plasmodium falciparum LDH assessed as inhibitory constant
[9] = Half life in mouse at 10 mg/kg, po; format: ADME, organism-based; conditions: in vivo
[10] = Inhibition of human recombinant LDH
Lactate dehydrogenase = Lactate dehydrogenase (Plasmodium falciparum, UniProt Q0PJ46); experiment: Inhibition of recombinant Plasmodium falciparum LDH
Sequence of Lactate dehydrogenase (Q0PJ46 whole entry): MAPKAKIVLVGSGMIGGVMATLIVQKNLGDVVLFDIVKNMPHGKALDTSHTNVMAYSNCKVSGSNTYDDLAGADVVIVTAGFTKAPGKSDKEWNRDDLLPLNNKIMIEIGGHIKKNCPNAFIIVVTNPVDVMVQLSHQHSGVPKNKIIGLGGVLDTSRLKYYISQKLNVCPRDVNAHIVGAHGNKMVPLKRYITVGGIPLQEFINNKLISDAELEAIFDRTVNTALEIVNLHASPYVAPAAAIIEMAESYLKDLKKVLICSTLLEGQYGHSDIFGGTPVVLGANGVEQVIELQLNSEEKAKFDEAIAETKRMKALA

Plasmodium falciparum [11] = experiment: Antimalarial activity against Plasmodium falciparum assessed as parasitic reduction at 100 mg/kg relative to control; format: functional; set-up: scale not given: the % may be the effect or the level left
Plasmodium falciparum [12] = experiment: Antimalarial activity against drug sensitive Plasmodium falciparum 3D7; format: functional, organism-based
Canis familiaris [13] = experiment: Cardioprotective activity in dogs assessed as increasing in coronary blood flow at […], iv relative to control; format: functional, Canis lupus familiaris
Canis familiaris [14] = experiment: Cardioprotective activity in dogs assessed as increasing in coronary blood flow at 5.0 ug/kg, iv relative to control; format: functional, Canis lupus familiaris; conditions: dose 5 µg/kg
Canis familiaris [15] = experiment: Cardioprotective activity in dogs assessed as reduction in aortic pressure at […], iv relative to control; format: functional, Canis lupus familiaris; set-up: scale not given: the % may be the effect or the level left
Jurkat = experiment: Antiproliferative activity against human Jurkat cells assessed as reduction in cell viability measured after 48 hrs by MTT assay; format: functional, cell-based
K562 = experiment: Antiproliferative activity against human K562 cells assessed as reduction in cell viability measured after 48 hrs by MTT assay; format: functional, cell-based; conditions: K562, 48 h
[16] = Half life in mouse; format: ADME, organism-based; conditions: in vivo
HEL = experiment: Antiproliferative activity against human HEL cells assessed as reduction in cell viability measured after 48 hrs by MTT assay; format: functional, cell-based
[17] = Inhibition of GSK3 (unknown origin); set-up: species or system Homo sapiens
[18] = Inhibition of p70S6K (unknown origin); set-up: species or system Homo sapiens
[19] = biological target: Ribosomal protein S6 kinase alpha-1 (Homo sapiens, UniProt Q15418); experiment: Inhibition of RSK1 (unknown origin)
Sequence of Ribosomal protein S6 kinase alpha-1 (Q15418 whole entry): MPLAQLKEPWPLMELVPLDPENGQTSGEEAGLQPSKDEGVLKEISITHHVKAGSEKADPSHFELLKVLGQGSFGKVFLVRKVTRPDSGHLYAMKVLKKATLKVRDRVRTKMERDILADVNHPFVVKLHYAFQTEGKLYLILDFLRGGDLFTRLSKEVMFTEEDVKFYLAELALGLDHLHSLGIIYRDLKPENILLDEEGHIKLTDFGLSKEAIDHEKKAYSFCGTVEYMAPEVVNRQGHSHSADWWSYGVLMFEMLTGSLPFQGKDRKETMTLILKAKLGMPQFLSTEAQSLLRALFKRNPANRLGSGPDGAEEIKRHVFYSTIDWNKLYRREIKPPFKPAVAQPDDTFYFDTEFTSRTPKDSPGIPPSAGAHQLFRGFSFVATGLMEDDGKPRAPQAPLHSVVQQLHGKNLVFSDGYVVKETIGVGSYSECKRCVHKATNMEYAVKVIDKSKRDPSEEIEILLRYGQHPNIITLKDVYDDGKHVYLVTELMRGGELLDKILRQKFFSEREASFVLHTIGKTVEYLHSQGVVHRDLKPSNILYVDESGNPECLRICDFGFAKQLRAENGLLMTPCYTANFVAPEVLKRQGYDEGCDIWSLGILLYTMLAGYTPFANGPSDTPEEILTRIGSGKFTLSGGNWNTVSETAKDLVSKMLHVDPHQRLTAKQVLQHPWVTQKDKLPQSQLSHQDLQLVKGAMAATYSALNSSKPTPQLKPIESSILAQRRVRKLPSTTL

Plasmodium falciparum [20] = experiment: Antimalarial activity against drug resistant Plasmodium falciparum KI; format: functional, organism-based
[21] = Inhibition of LPS induced TNF-alpha secretion in human THP-1 cells pretreated with LPS for 1 hr followed by compound addition and measured after 3 hrs by ELISA method; format: functional, cell-based
[22] = Inhibition of MAPK p38 (unknown origin); set-up: species or system Homo sapiens
[23] = biological target: Aldo-keto reductase family 1 member C3 (Homo sapiens, UniProt P42330); experiment: Inhibition of AKR1C3 (unknown origin)
Sequence of Aldo-keto reductase family 1 member C3 (P42330 whole entry): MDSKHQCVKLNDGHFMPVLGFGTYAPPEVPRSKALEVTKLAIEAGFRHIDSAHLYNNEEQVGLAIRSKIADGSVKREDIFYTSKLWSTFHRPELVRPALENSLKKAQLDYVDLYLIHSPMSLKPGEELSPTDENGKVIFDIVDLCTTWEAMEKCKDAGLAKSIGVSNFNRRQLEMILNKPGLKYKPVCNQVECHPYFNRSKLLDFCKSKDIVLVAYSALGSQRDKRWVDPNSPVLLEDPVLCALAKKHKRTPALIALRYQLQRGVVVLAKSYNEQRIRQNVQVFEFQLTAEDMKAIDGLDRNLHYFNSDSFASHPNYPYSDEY

HCT-116 [24] = experiment: cells; conditions: Homo sapiens
[25] = Lipophilicity, log D of compound at pH 7.4; format: physicochemical; conditions: buffer
[26] = Dissociation constant, pKa of compound; format: physicochemical
[27] = biological target: Prostaglandin G/H synthase 2 (Homo sapiens, UniProt P35354); experiment: Inhibition of COX2 (unknown origin)
Sequence of Prostaglandin G/H synthase 2 (P35354 whole entry): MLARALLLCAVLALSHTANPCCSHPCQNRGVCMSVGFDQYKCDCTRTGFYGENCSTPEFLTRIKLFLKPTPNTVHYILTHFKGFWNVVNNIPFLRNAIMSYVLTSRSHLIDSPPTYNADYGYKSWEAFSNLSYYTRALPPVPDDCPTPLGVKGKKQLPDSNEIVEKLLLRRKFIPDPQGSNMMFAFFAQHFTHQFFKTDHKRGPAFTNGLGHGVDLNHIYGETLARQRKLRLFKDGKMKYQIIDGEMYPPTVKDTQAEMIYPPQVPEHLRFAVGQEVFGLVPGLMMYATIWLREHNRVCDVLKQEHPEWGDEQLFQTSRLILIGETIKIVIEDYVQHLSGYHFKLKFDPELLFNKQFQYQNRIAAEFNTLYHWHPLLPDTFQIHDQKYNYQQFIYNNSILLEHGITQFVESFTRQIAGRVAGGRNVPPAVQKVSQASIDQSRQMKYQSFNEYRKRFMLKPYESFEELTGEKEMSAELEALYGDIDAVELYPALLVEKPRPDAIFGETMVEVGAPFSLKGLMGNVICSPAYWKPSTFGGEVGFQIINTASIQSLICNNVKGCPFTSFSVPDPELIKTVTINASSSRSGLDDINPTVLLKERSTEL

LNCaP = experiment: Antiproliferative activity against human LNCaP cells assessed as reduction in cell viability; format: functional, cell-based
[28] = biological target: Prostaglandin G/H synthase 1 (Homo sapiens, UniProt P23219); experiment: Inhibition of COX1 (unknown origin)
Sequence of Prostaglandin G/H synthase 1 (P23219 whole entry): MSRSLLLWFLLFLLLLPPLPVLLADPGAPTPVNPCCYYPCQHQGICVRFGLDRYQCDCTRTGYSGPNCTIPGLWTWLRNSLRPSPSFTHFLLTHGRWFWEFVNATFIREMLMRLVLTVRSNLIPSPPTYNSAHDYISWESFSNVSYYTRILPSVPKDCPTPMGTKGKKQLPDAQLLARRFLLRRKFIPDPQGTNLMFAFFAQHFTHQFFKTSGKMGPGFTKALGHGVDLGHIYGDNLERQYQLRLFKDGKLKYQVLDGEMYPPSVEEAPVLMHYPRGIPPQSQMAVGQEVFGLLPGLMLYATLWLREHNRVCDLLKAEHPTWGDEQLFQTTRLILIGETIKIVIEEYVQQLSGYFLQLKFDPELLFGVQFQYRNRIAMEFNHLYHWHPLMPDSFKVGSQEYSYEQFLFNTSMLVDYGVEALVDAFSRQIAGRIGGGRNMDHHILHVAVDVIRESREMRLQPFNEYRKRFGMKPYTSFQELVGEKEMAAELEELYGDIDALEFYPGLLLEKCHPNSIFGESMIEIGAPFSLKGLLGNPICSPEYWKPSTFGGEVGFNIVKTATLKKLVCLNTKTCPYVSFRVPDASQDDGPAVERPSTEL

HT-29 = experiment: cells; conditions: Homo sapiens
Description: Antiproliferative activity against human HT-29 cells assessed as reduction in cell viability

physchem = conditions: octanol/water
Description: Lipophilicity, log D of the compound

[29] = Drug concentration in mouse plasma at 10 mg/kg, iv administered once daily measured after 2 hrs; format: ADME, organism-based
[30] = Drug concentration in mouse brain at 10 mg/kg, iv administered once daily measured after 2 hrs; format: ADME, organism-based; conditions: read-out: Ct
THP-1 [31] = experiment: Antinflammatory activity in human THP-1 cells assessed as reduction of TNF-alpha at 1.0 uM relative to control; format: functional
[32] = biological target: T1, MAP kinase p38 (Homo sapiens) (UniProt O15264+Q15759+Q16539+P53778); experiment: Inhibition of p38 (unknown origin) at 1.0 uM relative to control; format: protein assay
THP-1 [33] = experiment: Antinflammatory activity in human THP-1 cells assessed as reduction of TNF-alpha at 10 uM relative to control; format: functional; set-up: scale not given: the % may be the effect or the level left
[34] = Neuroprotective activity against neurons (unknown origin) assessed as rescue by measuring cytokine level at 10 uM relative to control; format: functional, Homo sapiens, Neuron
[35] = biological target: T2, c-Jun N-terminal kinase, JNK (Homo sapiens) (UniProt P45983+P53779+P45984); experiment: Inhibition of JNK (unknown origin) at 1.0 uM relative to control; format: protein assay
[36] = biological target: Tumor necrosis factor (Homo sapiens) (UniProt P01375); experiment: Inhibition of TNF-alpha secretion in human THP-1 cells; set-up: concentration or dose not given beside the values; conditions: concentration not given here
Sequence of Tumor necrosis factor (Homo sapiens) (P01375 whole entry, looked up): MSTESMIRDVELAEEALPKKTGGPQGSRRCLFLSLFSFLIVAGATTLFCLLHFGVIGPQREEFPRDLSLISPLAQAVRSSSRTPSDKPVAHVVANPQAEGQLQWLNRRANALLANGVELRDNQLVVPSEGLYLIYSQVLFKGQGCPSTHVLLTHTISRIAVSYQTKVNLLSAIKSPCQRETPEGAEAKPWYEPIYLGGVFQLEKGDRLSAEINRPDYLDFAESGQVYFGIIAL

[37] = biological target: Mitogen-activated protein kinase 14 (Homo sapiens) (UniProt Q16539); experiment: Inhibition of recombinant p38alpha MAPK (unknown origin) at 10 uM preincubated for 10 mins followed by substrate addition and measured after 40 mins in the presence of ATP by ADP-Glo assay; conditions: time 60.0 min
Sequence of Mitogen-activated protein kinase 14 (Homo sapiens) (Q16539 whole entry): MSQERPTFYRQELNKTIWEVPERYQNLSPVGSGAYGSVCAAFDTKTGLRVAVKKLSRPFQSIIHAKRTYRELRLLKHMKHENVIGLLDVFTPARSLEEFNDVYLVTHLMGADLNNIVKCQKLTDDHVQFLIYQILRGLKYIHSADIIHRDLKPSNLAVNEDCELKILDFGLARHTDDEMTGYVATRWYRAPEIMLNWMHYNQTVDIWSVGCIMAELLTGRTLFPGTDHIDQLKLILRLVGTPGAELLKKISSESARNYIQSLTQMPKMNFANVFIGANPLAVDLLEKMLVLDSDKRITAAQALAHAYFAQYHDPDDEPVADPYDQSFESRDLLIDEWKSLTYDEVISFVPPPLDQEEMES

[38] = biological target: T2, c-Jun N-terminal kinase, JNK (Homo sapiens); experiment: Inhibition of JNK (unknown origin) at 10 uM relative to control; format: protein assay
[39] = Neuroprotective activity against neurons (unknown origin) assessed as rescue by measuring cytokine level at 1.0 uM relative to control; format: functional, Homo sapiens, Neuron
[40] = biological target: T1, MAP kinase p38 (Homo sapiens); experiment: Inhibition of p38 (unknown origin) at 10 uM relative to control; format: protein assay
[41] = biological target: Amyloid-beta precursor protein (Homo sapiens, UniProt P05067); experiment: Inhibition of amyloid beta 42 in human HEK293 cells; format: cell-based
Sequence of Amyloid-beta precursor protein (P05067 whole entry): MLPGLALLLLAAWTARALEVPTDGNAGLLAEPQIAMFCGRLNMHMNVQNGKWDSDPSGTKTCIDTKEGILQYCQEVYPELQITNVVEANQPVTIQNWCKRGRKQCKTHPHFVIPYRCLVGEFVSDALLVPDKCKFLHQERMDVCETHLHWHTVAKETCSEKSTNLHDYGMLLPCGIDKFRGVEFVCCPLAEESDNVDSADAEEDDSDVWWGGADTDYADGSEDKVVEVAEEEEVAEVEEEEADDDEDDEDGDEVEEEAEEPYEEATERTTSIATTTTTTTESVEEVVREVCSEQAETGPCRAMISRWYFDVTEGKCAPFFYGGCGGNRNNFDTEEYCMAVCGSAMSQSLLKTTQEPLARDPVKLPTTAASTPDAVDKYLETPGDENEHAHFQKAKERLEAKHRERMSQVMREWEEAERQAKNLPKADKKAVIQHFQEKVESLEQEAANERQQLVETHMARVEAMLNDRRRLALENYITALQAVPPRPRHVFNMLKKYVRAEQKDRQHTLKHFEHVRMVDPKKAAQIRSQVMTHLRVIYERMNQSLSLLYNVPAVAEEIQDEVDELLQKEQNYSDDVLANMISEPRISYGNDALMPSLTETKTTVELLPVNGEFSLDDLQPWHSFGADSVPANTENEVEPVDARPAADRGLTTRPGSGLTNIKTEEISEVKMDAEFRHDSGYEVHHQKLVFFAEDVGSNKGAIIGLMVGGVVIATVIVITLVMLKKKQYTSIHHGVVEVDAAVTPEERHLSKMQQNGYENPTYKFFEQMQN

Structure (SMILES): CC1(C)Oc2ccc(C#N)cc2[C@@H](N2CCCC2=O)[C@@H]1O [LEVCROMAKALIM]
Activity (Canis familiaris [3]): -11.2%

Structure (SMILES): O=C(O)c1conc1O
Cmax [4]: 153 µM
Activity (Plasmodium falciparum [5]): 100%
Cmax [6]: 158 µM
half-life [7]: 1.1 h
Ki [8]: 0.47 µM
half-life [9]: 1.6 h
IC50 [10]: 54 µM
IC50 (Lactate dehydrogenase): 1.1 µM
Activity (Plasmodium falciparum [11]): 30%
EC50 (Plasmodium falciparum [12]): 74.4 µM
EC90 (Plasmodium falciparum [12]): > 200 µM

Structure (SMILES): CC1(C)Oc2cc3nonc3cc2[C@@H](N2CCCCC2=O)[C@@H]1O
Activity (Canis familiaris [13]): 34.3%
Activity (Canis familiaris [14]): 33.3%
Activity (Canis familiaris [15]): -7.5%

Structure (SMILES): CC1(C)CC[C@]2(C(=O)O)CC[C@]3(C)C(=CC[C@@H]4[C@@]5(C)CC[C@H](O)C(C)(C)[C@@H]5CC[C@]43C)[C@@H]2C1 [OLEANOLIC_ACID]
EC50 (Jurkat): > 1 µM
EC50 (K562): > 100 µM
half-life [16]: 0.7 h
EC50 (HEL): > 1 µM

Structure (SMILES): CCn1c(-c2nonc2N)nc2cnccc21
IC50 [17]: 0.033 µM
IC50 [18]: 0.07 µM
IC50 [19]: 0.024 µM

Structure (SMILES): O=C(O)c1nsnc1O
Ki [8]: 0.29 µM
IC50 [10]: 10.3 µM
IC50 (Lactate dehydrogenase): 0.14 µM
EC50 (Plasmodium falciparum [20]): 144 µM
EC50 (Plasmodium falciparum [12]): 75.3 µM
EC90 (Plasmodium falciparum [12]): > 170 µM

Structure (SMILES): CCn1c(-c2nonc2N)nc2cncc(CNC3CCNCC3)c21
IC50 [17]: 1.9 µM
IC50 [18]: 0.27 µM
IC50 [19]: 0.155 µM

Structure (SMILES): O=[N+]([O-])c1ccccc1 [NITROBENZENE]
logD (physchem): 1.6

Structure (SMILES): CCCOc1ccc(Nc2nc3nonc3nc2N2CCC(Oc3ccc(Cl)cc3)CC2)cc1
concentration at 2 h [29]: 0.43 µM
concentration at 2 h [30]: 0.8 µM
inhibition at 1 µM (THP-1 [31]): 51%
inhibition [32]: 37%
Activity (THP-1 [33]): 74%
Activity [34]: 51%
inhibition [35]: 49%
inhibition [36]: 74%
inhibition [37]: 99%
inhibition [38]: 98%
Activity [39]: 33%
inhibition [40]: 99%

Other lines, results leading:

EC50 (HCT-116 [1]): 1.3 µM
Structure (SMILES): O=C(Nc1nonc1-c1ccc(Cl)cc1)c1ccc(C(F)(F)F)cc1

IC50 [2]: 10 µM
Structure (SMILES): Cc1ccc(Cl)cc1Nc1cc(Cl)c2nonc2c1[N+](=O)[O-]

EC50 (HL-60): 9.6 µM
IC50 (c-Myc/c-Max): 40 µM
EC50 (Daudi): 3.1 µM
Structure (SMILES): O=C(Oc1ccccc1)c1ccccc1Nc1ccc([N+](=O)[O-])c2nonc12

EC50 [21]: 1.8 µM
IC50 [22]: 6.3 µM
Structure (SMILES): Cc1ccc(Cl)cc1Nc1ccc([N+](=O)[O-])c2nonc12

IC50 [23]: 0.3 µM
EC50 (HCT-116 [24]): 78.9 µM
logD [25]: 1.8
pKa [26]: 4.09
IC50 [27]: > 100 µM
EC50 (LNCaP): 141 µM
IC50 [28]: > 100 µM
EC50 (HT-29): 135 µM
Structure (SMILES): COc1ccc2c(c1)c(Cc1nonc1O)c(C)n2C(=O)c1ccccc1

EC50 [41]: 0.27 µM
Structure (SMILES): CC(C)CC(C(=O)O)c1cc(Cl)c(OCC2CC2)c(-c2ccc3nonc3c2)c1 (stereo not given)
